Laboratory results taken from ChEMBL document CHEMBL5096208, “Installation of Pargyline, a LSD1 Inhibitor, in the HDAC Inhibitory Template Culminated in the Identification of a Tractable Antiprostate Cancer Agent” (J Med Chem, 2021).
Activity calls are given as the source filed them. The rule behind the calls is not given here.

What was measured:
[1] = tested on: PC-3; assay: Upregulation of acetyl-tubulin in human PC-3 cells at 0.625 to 5 uM by Western blot analysis; assay type: functional, cell-based; conditions: dose 0.625-5 µM
[2] = target: Histone deacetylase 1 (Homo sapiens, UniProt Q13547); assay: Inhibition of human HDAC1 (379 to 382 residues) using RHKKAc as flurogenic substrate
Sequence of Histone deacetylase 1 (Q13547 whole entry, the tested form may be a part): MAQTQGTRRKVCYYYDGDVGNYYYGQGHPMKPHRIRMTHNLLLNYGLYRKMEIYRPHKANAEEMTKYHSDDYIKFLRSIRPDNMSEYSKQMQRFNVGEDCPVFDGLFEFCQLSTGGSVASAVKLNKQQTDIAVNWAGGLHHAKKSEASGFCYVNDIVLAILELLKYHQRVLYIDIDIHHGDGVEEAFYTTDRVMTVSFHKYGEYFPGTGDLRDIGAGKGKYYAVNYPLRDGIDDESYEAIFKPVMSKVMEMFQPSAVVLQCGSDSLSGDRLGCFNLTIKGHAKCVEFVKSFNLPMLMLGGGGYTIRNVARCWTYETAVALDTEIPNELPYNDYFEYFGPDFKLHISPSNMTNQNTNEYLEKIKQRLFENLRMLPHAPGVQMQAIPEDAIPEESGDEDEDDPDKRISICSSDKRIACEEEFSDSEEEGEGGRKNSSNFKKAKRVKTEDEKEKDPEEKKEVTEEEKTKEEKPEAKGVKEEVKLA

[3] = tested on: PC-3; assay: Antiproliferative activity against human PC-3 cells assessed as cell growth inhibition at upto 10 uM incubated for 48 hrs by MTT assay; assay type: functional, cell-based
[4] = target: Histone deacetylase 3 (Homo sapiens, UniProt O15379); assay: Inhibition of human HDAC3 (379 to 382 residues) using RHKKAc as flurogenic substrate
Sequence of Histone deacetylase 3 (O15379 whole entry, the tested form may be a part): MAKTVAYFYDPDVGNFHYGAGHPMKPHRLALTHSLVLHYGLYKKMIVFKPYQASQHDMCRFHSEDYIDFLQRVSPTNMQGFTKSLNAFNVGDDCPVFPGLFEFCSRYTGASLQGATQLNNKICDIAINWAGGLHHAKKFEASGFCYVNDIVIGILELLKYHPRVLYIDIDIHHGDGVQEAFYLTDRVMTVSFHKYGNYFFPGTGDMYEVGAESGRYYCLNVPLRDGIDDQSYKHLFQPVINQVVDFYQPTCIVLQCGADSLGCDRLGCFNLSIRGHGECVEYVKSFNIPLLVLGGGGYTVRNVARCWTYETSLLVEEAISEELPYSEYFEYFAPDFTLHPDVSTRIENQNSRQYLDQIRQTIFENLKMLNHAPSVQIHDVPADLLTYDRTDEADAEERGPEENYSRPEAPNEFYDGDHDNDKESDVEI

[5] = target: T1, Histone deacetylase 8 (Homo sapiens, UniProt Q9BY41); assay: Inhibition of human HDAC8 (379 to 382 residues) using RHKAcKAc as flurogenic substrate
T1 sequence (Q9BY41 whole entry): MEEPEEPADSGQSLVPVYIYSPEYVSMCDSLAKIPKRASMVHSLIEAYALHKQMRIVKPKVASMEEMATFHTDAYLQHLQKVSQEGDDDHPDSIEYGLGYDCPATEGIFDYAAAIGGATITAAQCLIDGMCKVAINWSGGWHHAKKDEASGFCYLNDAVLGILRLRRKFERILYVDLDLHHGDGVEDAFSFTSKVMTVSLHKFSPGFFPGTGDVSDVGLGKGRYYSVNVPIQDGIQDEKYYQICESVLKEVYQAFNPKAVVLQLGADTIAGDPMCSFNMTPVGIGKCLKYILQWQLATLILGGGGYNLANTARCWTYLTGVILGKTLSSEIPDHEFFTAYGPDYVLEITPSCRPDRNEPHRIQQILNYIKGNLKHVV

[6] = target: T2, Polyamine deacetylase HDAC10 (Homo sapiens, UniProt Q969S8); assay: Inhibition of human HDAC10 using Ac-Spermidine-AMC as flurogenic substrate
T2 sequence (Q969S8 whole entry): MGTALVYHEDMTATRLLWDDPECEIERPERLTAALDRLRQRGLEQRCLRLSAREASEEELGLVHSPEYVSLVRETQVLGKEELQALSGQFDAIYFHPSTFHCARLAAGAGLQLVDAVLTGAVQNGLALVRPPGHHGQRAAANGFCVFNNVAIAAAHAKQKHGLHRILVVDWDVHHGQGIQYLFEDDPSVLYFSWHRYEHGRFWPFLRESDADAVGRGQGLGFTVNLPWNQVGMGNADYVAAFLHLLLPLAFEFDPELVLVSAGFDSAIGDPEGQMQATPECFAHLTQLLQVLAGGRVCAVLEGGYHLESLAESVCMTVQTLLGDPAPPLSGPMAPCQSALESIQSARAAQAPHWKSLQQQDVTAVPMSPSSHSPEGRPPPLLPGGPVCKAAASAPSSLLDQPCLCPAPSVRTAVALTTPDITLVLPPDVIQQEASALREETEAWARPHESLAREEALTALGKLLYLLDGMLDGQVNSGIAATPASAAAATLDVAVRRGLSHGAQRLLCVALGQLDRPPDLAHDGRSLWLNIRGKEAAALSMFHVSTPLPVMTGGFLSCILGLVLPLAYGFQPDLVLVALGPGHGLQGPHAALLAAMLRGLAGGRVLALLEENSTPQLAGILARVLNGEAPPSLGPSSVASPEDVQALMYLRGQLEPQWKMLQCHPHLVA

[7] = organism: Homo sapiens; assay: Selectivity ratio of IC50 for human HDAC4 to IC50 for human HDAC6
[8] = tested on: PC-3; assay: Upregulation of acetyl-histone H3 in human PC-3 cells at 0.625 to 5 uM by Western blot analysis; assay type: functional, cell-based; conditions: dose 0.625-5 µM
[9] = tested on: DU-145; assay: Upregulation of acetyl-histone H3 in human DU-145 cells at 0.625 to 5 uM by Western blot analysis; assay type: functional, cell-based; conditions: dose 0.625-5 µM
[10] = C0 in Sprague-Dawley rat at 2 mg/kg, iv administered as single dose through tail vein measured upto 24 hrs post dose by UPLC-MS/MS analysis; assay type: ADME, organism-based; conditions: in vivo
[11] = AUC (0 to infinity) in Sprague-Dawley rat at 2 mg/kg, iv administered as single dose through tail vein measured upto 24 hrs post dose by UPLC-MS/MS analysis; assay type: ADME, organism-based; design: dose 2 mg/kg, time < 24 hrs, route iv; conditions: in vivo
[12] = Clearance in Sprague-Dawley rat at 2 mg/kg, iv administered as single dose through tail vein measured upto 24 hrs post dose by UPLC-MS/MS analysis; assay type: ADME, organism-based; conditions: in vivo
[13] = Volume of distribution at steady state in Sprague-Dawley rat at 2 mg/kg, iv administered as single dose through tail vein measured upto 24 hrs post dose by UPLC-MS/MS analysis; assay type: ADME, organism-based; conditions: in vivo, read-out: Vdss
[14] = Cmax in Sprague-Dawley rat at 25 mg/kg, po administered once via gavage measured upto 24 hrs post dose by UPLC-MS/MS analysis; assay type: ADME, organism-based; design: dose 25 mg/kg, time < 24 hrs, route po; conditions: in vivo
[15] = Oral bioavailability in Sprague-Dawley rat at 25 mg/kg administered once via gavage measured upto 24 hrs post dose by UPLC-MS/MS analysis; assay type: ADME, organism-based; conditions: in vivo
[16] = Tmax in Sprague-Dawley rat at 25 mg/kg, po formulated using SMEDDS administered once via gavage measured upto 24 hrs post dose by UPLC-MS/MS analysis; assay type: ADME, organism-based; conditions: in vivo
[17] = AUC (0 to 24 hrs) in Sprague-Dawley rat at 25 mg/kg, po formulated using SMEDDS administered once via gavage measured upto 24 hrs post dose by UPLC-MS/MS analysis; assay type: ADME, organism-based; design: dose 25 mg/kg, time < 24 hrs, route po; conditions: in vivo
[18] = Oral bioavailability in Sprague-Dawley rat at 25 mg/kg formulated using SMEDDS administered once via gavage measured upto 24 hrs post dose by UPLC-MS/MS analysis; assay type: ADME, organism-based; conditions: in vivo
[19] = Metabolic stability in Sprague-Dawley rat hepatocyte assessed as parent compound remaining at 10 uM incubated for 30 mins by LC-MS/MS analysis; assay type: ADME, cell-based; conditions: hepatocytes, read-out: Stability
[20] = Metabolic stability in Sprague-Dawley rat hepatocyte assessed as parent compound remaining at 10 uM incubated for 60 mins by LC-MS/MS analysis; assay type: ADME, cell-based; conditions: hepatocytes, read-out: Stability
[21] = Metabolic stability in Beagle dog hepatocyte assessed as parent compound remaining at 10 uM by LC-MS/MS analysis; assay type: ADME, cell-based, Canis lupus familiaris; conditions: hepatocytes, read-out: Stability
[22] = Metabolic stability in Beagle dog hepatocyte assessed as parent compound remaining at 10 uM incubated for 30 mins by LC-MS/MS analysis; assay type: ADME, cell-based, Canis lupus familiaris; conditions: hepatocytes, read-out: Stability
[23] = Metabolic stability in Beagle dog hepatocyte assessed as parent compound remaining at 10 uM incubated for 240 mins by LC-MS/MS analysis; assay type: ADME, cell-based, Canis lupus familiaris; conditions: hepatocytes, read-out: Stability
[24] = Metabolic stability in Sprague-Dawley rat hepatocyte assessed as half life at 10 uM by LC-MS/MS analysis; assay type: ADME, cell-based; conditions: hepatocytes
[25] = Metabolic stability in Sprague-Dawley rat hepatocyte assessed as intrinsic clearance at 10 uM by LC-MS/MS analysis; assay type: ADME, cell-based; conditions: hepatocytes, read-out: CLH
[26] = Metabolic stability in Beagle dog hepatocyte assessed as intrinsic clearance at 10 uM by LC-MS/MS analysis; assay type: ADME, cell-based, Canis lupus familiaris; conditions: hepatocytes, read-out: CLH
[27] = tested on: DU-145; assay: Antitumor activity against human DU-145 cells xenografted in athymic nude mouse assessed as tumor growth inhibition at 100 mg/kg, po administered twice daily and measured upto 60 days by caliper method relative to control; assay type: functional; conditions: DU-145, 1440 h, time <= 60 day, read-out: TGI

Compound: C#CCN(C)Cc1cccc(NC(=O)CCCCCCC(=O)NO)c1
- Activity [1]: Active
- IC50 [2]: 673 nM
- Activity [3]: Active
- IC50 [4]: 133 nM
- IC50 [5]: 210 nM
- IC50 [6]: 374 nM
- Ratio IC50 [7]: > 500
- Activity [8]: Active
- Activity [9]: Active
- C0 at 24 h [10]: 38.1 ng/mL
- AUC(0-inf) [11]: 76.8 ng·h/mL
- clearance [12]: 500 mL/min/kg
- Vd [13]: 247 L/kg
- Cmax [14]: 74.1 ng/mL
- bioavailability [15]: 11.8%
- Tmax [16]: 0.9 h
- AUC(0-t) at 24 h [17]: 587 ng·h/mL
- bioavailability [18]: 62.1%
- remaining at 0.5 h, 10 µM [19]: 72.2%
- remaining at 1 h, 10 µM [20]: 52.5%
- remaining at 10 µM [21]: 100%
- remaining at 0.5 h, 10 µM [22]: 91.6%
- remaining at 4 h, 10 µM [23]: 46.6%
- half-life at 10 µM [24]: 1.56 h
- CLint scaled at 10 µM [25]: 90.2 mL/min/kg
- CLint scaled at 10 µM [26]: 21.6 mL/min/kg
- inhibition in vivo at 100 mg/kg [27]: 73.6%
